Here are results for 16 compounds from US12433952B2, “Antibody-drug conjugates targeting folate receptor alpha and methods of use” (ZYMEWORKS BC INC., priority 2022, dated 2025).

Experiment in all cases: In vitro cytotoxicity of camptothecin analogues (CellTiter-Glo)
Common to all, as to format: cell-based

For one test, the system named is ZR-75-1 (breast cancer). As to conditions: Homo sapiens, ZR-75-1, 120 h, read-out: pIC50 ZR-75 (converted). The method, then:
(§1) Cytotoxicity of the camptothecin analogues was assessed in vitro as follows.
(§2) In vitro potency was assessed on multiple cancer cell lines: SK-BR-3 (breast cancer), SKOV-3 (ovarian cancer), Calu-3 (lung cancer), ZR-75-1 (breast cancer) and MDA-MB-468 (breast cancer). Serial dilutions of camptothecin analogues were prepared in RPMI 1640+10% FBS, and 20 μL of each dilution was added to 384-well plates. Cells cultured in log-phase growth were detached by brief incubation in 0.05% Trypsin and resuspended in respective culturing media at 20,000 cells/mL (with the exception of ZR-75 cells, which were resuspended at 10,000 cells/mL). 50 μL of cell suspension was then added to the plates containing test articles. Cells were incubated with test articles for 4 d at 37° C. (with the exception of ZR-75 cells, which were incubated for 5 d). Growth inhibition was assessed by CellTiter-Glo® (Promega Corporation, Madison, WI) and luminescence was measured on a plate reader. IC50 values were determined by GraphPad Prism (GraphPad Software, San Diego CA).

The subject of the next test is SK-BR-3 (breast cancer). The following applies: Homo sapiens, SK-BR-3, 96 h, read-out: pIC50 SKBR-3 (converted). The method, then: as §1, §2
For test [1], the system named is MDA-MB-468 (breast cancer). As to conditions: Homo sapiens, MDA-MB-468, 96 h, read-out: pIC50 MDA-MB-468 (converted). The method, then:
as §1, §2

A further test relates to Calu-3 (lung cancer). As to conditions: Homo sapiens, Calu-3, 96 h, read-out: pIC50 Calu-3 (converted). The method, then: as §1, §2
The test system of a further test is SKOV-3 (ovarian cancer). As to conditions: Homo sapiens, SK-OV-3, 96 h, read-out: pIC50 SKOV-3 (converted). The method, then:
as §1, §2

SMILES strings stand for the structures. Like-named read-outs stand apart in the source and are kept apart here.

For the compound `CC[C@@]1(O)C(=O)OCc2c1cc1n(c2=O)Cc2c-1nc1cc(F)c(OC)cc1c2CN1CCN(C)CC1` [Compound 107, (S)-4-ethyl-8-fluoro-4-hydroxy-9-methoxy-11-((4-methylpiperazin-1-yl)methyl)-1,12-dihydro-14H-pyrano[3′,4′:6,7]indolizino[1,2-b]quinoline-3,14(4H)-dione], the IC50 in the test with ZR-75-1 (breast cancer) (5 d incubation) is 2.75 nM; with SK-BR-3 (breast cancer) (4 d incubation), 3.09 nM; in test [1] (4 d incubation), 3.89 nM; in the test on Calu-3 (lung cancer) (4 d incubation), 4.07 nM.

As to `CC[C@@]1(O)C(=O)OCc2c1cc1n(c2=O)Cc2c-1nc1cc(F)c(C)cc1c2CN1CCSCC1CO` (stereo partly drawn) [Compound 114, (4S)-4-ethyl-8-fluoro-4-hydroxy-11-((3-(hydroxymethyl)thiomorpholino)methyl)-9-methyl-1,12-dihydro-14H-pyrano[3′,4′:6,7]indolizino[1,2-b]quinoline-3,14(4H)-dione], the IC50 in the test with SK-BR-3 (breast cancer) was 0.107 nM; in test [1], 0.417 nM; in the test on SKOV-3 (ovarian cancer), 0.178 nM; with Calu-3 (lung cancer), 0.0933 nM.

In the case of `CC[C@@]1(O)C(=O)OCc2c1cc1n(c2=O)Cc2c-1nc1cc(F)c(C)cc1c2CN1CC2CC1(CO)CO2` (stereo partly drawn) [Compound 115, (4S)-4-ethyl-8-fluoro-4-hydroxy-11-((4-(hydroxymethyl)-2-oxa-5-azabicyclo[2.2.1]heptan-5-yl)methyl)-9-methyl-1,12-dihydro-14H-pyrano[3′,4′:6,7]indolizino[1,2-b]quinoline-3,14(4H)-dione], the IC50 with SK-BR-3 (breast cancer) (4 d incubation) is 2.57 nM; in test [1] (4 d incubation) it was 4.17 nM; with SKOV-3 (ovarian cancer) (4 d incubation) it was 3.8 nM; in the test on Calu-3 (lung cancer) (4 d incubation), 1.29 nM.

`CC[C@@]1(O)C(=O)OCc2c1cc1n(c2=O)Cc2c-1nc1cc(F)c(C)cc1c2CN1CCS(=O)(=O)CC1CO` (stereo partly drawn) [Compound 116, (4S)-4-ethyl-8-fluoro-4-hydroxy-11-((3-(hydroxymethyl)-1,1-dioxidothiomorpholino)methyl)-9-methyl-1,12-dihydro-14H-pyrano[3′,4′:6,7]indolizino[1,2-b]quinoline-3,14(4H)-dione]: the IC50 is 7.08 nM in the test with SK-BR-3 (breast cancer) (4 d incubation), 9.33 nM in test [1] (4 d incubation), 12.6 nM in the test on SKOV-3 (ovarian cancer) (4 d incubation) and 0.794 nM in the test on Calu-3 (lung cancer) (4 d incubation).

On to `CC[C@@]1(O)C(=O)OCc2c1cc1n(c2=O)Cc2c-1nc1cc(F)c(C)cc1c2CN1CC2CC(C1)C2O` (stereo partly drawn) [Compound 117, (4S)-4-ethyl-8-fluoro-4-hydroxy-11-((6-hydroxy-3-azabicyclo[3.1.1]heptan-3-yl)methyl)-9-methyl-1,12-dihydro-14H-pyrano[3′,4′:6,7]indolizino[1,2-b]quinoline-3,14(4H)-dione], for which the IC50 with SK-BR-3 (breast cancer) (4 d incubation) was 0.0955 nM; in test [1] (4 d incubation), 0.468 nM; with SKOV-3 (ovarian cancer) (4 d incubation), 0.17 nM; with Calu-3 (lung cancer) (4 d incubation) it was 0.162 nM.

With `CC[C@@]1(O)C(=O)OCc2c1cc1n(c2=O)Cc2c-1nc1cc(F)c(C)cc1c2CN1CC(F)(CO)C1` [Compound 118, (S)-4-ethyl-8-fluoro-11-((3-fluoro-3-(hydroxymethyl)azetidin-1-yl)methyl)-4-hydroxy-9-methyl-1,12-dihydro-14H-pyrano[3′,4′:6,7]indolizino[1,2-b]quinoline-3,14(4H)-dione], the IC50 with SK-BR-3 (breast cancer) (4 d incubation) is 1.51 nM; in test [1] (4 d incubation), 1.86 nM; in the test with SKOV-3 (ovarian cancer) (4 d incubation), 1.45 nM; in the test with Calu-3 (lung cancer) (4 d incubation), 0.933 nM.

As to `CC[C@@]1(O)C(=O)OCc2c1cc1n(c2=O)Cc2c-1nc1cc(F)c(C)cc1c2CN1CC(CO)C1` [Compound 119, (S)-4-ethyl-8-fluoro-4-hydroxy-11-((3-(hydroxymethyl)azetidin-1-yl)methyl)-9-methyl-1,12-dihydro-14H-pyrano[3′,4′:6,7]indolizino[1,2-b]quinoline-3,14(4H)-dione], the IC50 with SK-BR-3 (breast cancer) (4 d incubation) was 4.17 nM; in test [1] (4 d incubation), 2.75 nM; in the test on SKOV-3 (ovarian cancer) (4 d incubation), 3.72 nM; in the test on Calu-3 (lung cancer) (4 d incubation), 1.17 nM.

In the case of `CC[C@@]1(O)C(=O)OCc2c1cc1n(c2=O)Cc2c-1nc1cc(F)c(C)cc1c2CN1CCC(F)(F)C(CO)C1` (stereo partly drawn) [Compound 120, (4S)-11-((4,4-difluoro-3-(hydroxymethyl)piperidin-1-yl)methyl)-4-ethyl-8-fluoro-4-hydroxy-9-methyl-1,12-dihydro-14H-pyrano[3′,4′:6,7]indolizino[1,2-b]quinoline-3,14(4H)-dione], the IC50 in the test on SK-BR-3 (breast cancer) (4 d incubation) is 1.1 nM; in test [1] (4 d incubation) it was 0.191 nM; in the test on SKOV-3 (ovarian cancer) (4 d incubation), 0.251 nM; with Calu-3 (lung cancer) (4 d incubation) it was 0.1 nM.

As for `CC[C@@]1(O)C(=O)OCc2c1cc1n(c2=O)Cc2c-1nc1cc(F)c(C)cc1c2CN1C2CCC1(CO)CC2` [Compound 121, (S)-4-ethyl-8-fluoro-4-hydroxy-11-((1-(hydroxymethyl)-7-azabicyclo[2.2.1]heptan-7-yl)methyl)-9-methyl-1,12-dihydro-14H-pyrano[3′,4′:6,7]indolizino[1,2-b]quinoline-3,14(4H)-dione], the IC50 with SK-BR-3 (breast cancer) was 0.148 nM; in test [1], 0.269 nM; with SKOV-3 (ovarian cancer) it was 0.195 nM; in the test with Calu-3 (lung cancer), 0.145 nM.

Turning to `CC[C@@]1(O)C(=O)OCc2c1cc1n(c2=O)Cc2c-1nc1cc(F)c(C)cc1c2CNS(=O)(=O)Cc1ccc([N+](=O)[O-])cc1` [Compound 124, (S)—N-((4-ethyl-8-fluoro-4-hydroxy-9-methyl-3,14-dioxo-3,4,12,14-tetrahydro-1H-pyrano[3′,4′:6,7]indolizino[1,2-b]quinolin-11-yl)methyl)-1-(4-nitrophenyl) methanesulfonamide], the IC50 in the test with ZR-75-1 (breast cancer) (5 d incubation) is 2.29 nM; in the test with SK-BR-3 (breast cancer) (4 d incubation), 1.2 nM; in test [1] (4 d incubation), 3.47 nM; with Calu-3 (lung cancer) (4 d incubation) it was 1.7 nM.

In the case of `CC[C@@]1(O)C(=O)OCc2c1cc1n(c2=O)Cc2c-1nc1cc(F)c(OC)cc1c2CNS(=O)(=O)CCO` [Compound 130, (S)—N-((4-ethyl-8-fluoro-4-hydroxy-9-methoxy-3,14-dioxo-3,4,12,14-tetrahydro-1H-pyrano[3′,4′:6,7]indolizino[1,2-b]quinolin-11-yl)methyl)-2-hydroxyethane-1-sulfonamide], the IC50 in the test with SK-BR-3 (breast cancer) (4 d incubation) is 14.8 nM; in test [1] (4 d incubation) it was 6.46 nM; in the test with SKOV-3 (ovarian cancer) (4 d incubation), 24 nM; in the test with Calu-3 (lung cancer) (4 d incubation) it was 1.66 nM.

For the compound `CC[C@@]1(O)C(=O)OCc2c1cc1n(c2=O)Cc2c-1nc1cc(F)c(C)cc1c2CNS(N)(=O)=O` [Compound 131, (S)—N-((4-ethyl-8-fluoro-4-hydroxy-9-methyl-3,14-dioxo-3,4,12,14-tetrahydro-1H-pyrano[3′,4′:6,7]indolizino[1,2-b]quinolin-11-yl)methyl)methanesulfamide], the IC50 with ZR-75-1 (breast cancer) is 0.955 nM; in the test with SK-BR-3 (breast cancer) it was 1.05 nM; in test [1], 9.12 nM; with Calu-3 (lung cancer) it was 9.12 nM.

For `CC[C@@]1(O)C(=O)OCc2c1cc1n(c2=O)Cc2c-1nc1cc(F)c(OC)cc1c2CNC(=O)NCc1ccc(N)cc1` [Compound 135, (S)-1-(4-aminobenzyl)-3-((4-ethyl-8-fluoro-4-hydroxy-9-methoxy-3,14-dioxo-3,4,12,14-tetrahydro-1H-pyrano[3′,4′:6,7]indolizino[1,2-b]quinolin-11-yl)methyl)urea], the values for the IC50 (in the test with ZR-75-1 (breast cancer); in the test with SK-BR-3 (breast cancer); in test [1]) were 13.2 nM, 12.3 nM and 10.7 nM, respectively.

`CC[C@@]1(O)C(=O)OCc2c1cc1n(c2=O)Cc2c-1nc1cc(F)c(N)cc1c2CNC(C)=O` [Compound 147, (S)—N-((9-amino-4-ethyl-8-fluoro-4-hydroxy-3,14-dioxo-3,4,12,14-tetrahydro-1H-pyrano[3′,4′:6,7]indolizino[1,2-b]quinolin-11-yl)methyl)acetamide]: the IC50 in the test with SK-BR-3 (breast cancer) (4 d incubation) was 5.13 nM; in test [1] (4 d incubation), 21.4 nM; in the test on SKOV-3 (ovarian cancer) (4 d incubation) it was 43.7 nM; in the test on Calu-3 (lung cancer) (4 d incubation) it was 21.4 nM.

In the case of `CC[C@@]1(O)C(=O)OCc2c1cc1n(c2=O)Cc2c-1nc1cc(F)c(N)cc1c2CN=[N+]=[N-]` [Compound 152, (S)-9-amino-11-(azidomethyl)-4-ethyl-8-fluoro-4-hydroxy-1,12-dihydro-14H-pyrano[3′,4′:6,7]indolizino[1,2-b]quinoline-3,14(4H)-dione], the IC50 with SK-BR-3 (breast cancer) is 3.24 nM; in test [1], 5.01 nM; in the test with SKOV-3 (ovarian cancer), 2.88 nM; in the test with Calu-3 (lung cancer), 1.48 nM.

Regarding `CC[C@@]1(O)C(=O)OCc2c1cc1n(c2=O)Cc2c-1nc1cc(F)c(N)cc1c2CN1CCN(S(=O)(=O)c2ccccc2)CC1` [Compound 153, (S)-9-amino-4-ethyl-8-fluoro-4-hydroxy-11-((4-(phenylsulfonyl)piperazin-1-yl)methyl)-1,12-dihydro-14H-pyrano[3′,4′:6,7]indolizino[1,2-b]quinoline-3,14(4H)-dione], the IC50 was 0.513 nM in the test with SK-BR-3 (breast cancer) (4 d incubation), 0.933 nM with SKOV-3 (ovarian cancer) (4 d incubation) and 0.115 nM in the test on Calu-3 (lung cancer) (4 d incubation).
